How the values were obtained:
[1] = test system: sweet taste; settings: Optimising Sweet Taste in Foods, 2006; cited from earlier work
[2] = test system: sweetness intensity in humans; experiment: Discriminative sensory evaluation of sweetness intensity, two-alternative forced choice sip and spit (2AFC) in water; format: in vivo, human
Method: The test compounds were evaluated for sweetness intensity in a aqueous solution in humans using a two-alternative forced choice “sip and spit” method (2AFC).
Preparation of Samples for Sensory Taste Tests: • Control Sample: Sucrose (various levels) • Variant Sample: Compound 1, 5 and 8
The control samples for the discrimination taste test were prepared by dissolving the sucrose directly in water at the indicated test concentrations Variant sample containing Compound 1 was prepared by dissolving Compound i directly in water at the desired concentration. Variant sample containing Compound 5 and 8 were prepared by dissolving the respective sodium salts of the compounds directly in water (refer to Example 4).
The 2AFC test used for compound evaluation was a double blinded and randomized test where taste panelists (n≥12) evaluate a pair of sweetened solutions at a time—one sample is sweetened with sucrose (i.e. control) while the other sample is sweetened with the test compound (i.e. variant). Panelists were instructed not to eat or drink (except water) for at least 1 h before the test. During the test, panelists were instructed to sip each sample, swirl it around their mouth and then expectorate. After tasting each sample in the pair, panelists were instructed to record the sample that is “sweeter” in taste. Panelists cleansed their palates by rinsing with water, eating a cracker and waiting for an interval of about 5 minutes. All samples were tasted at ambient temperatures. Data were analyzed using binomial probabilities.

[3] = test system: sweetness intensity (expert tasters); experiment: Sweetness potency comparison vs D-Tryptophan, paired comparison by expert tasters; format: in vivo, human; settings: in water, n>5
Method: The sweetness potency of the test compound was compared D-Tryptophan to understand potency differences between the test compound and non-methylated variants of D-tryptophan.
(§1) Preparation of Samples for Taste Tests: • Control Sample: 250 ppm, 500 ppm and 1000 ppm of D-Tryptophan • Variant Sample: 250 ppm, 500 ppm and 1000 ppm of Compound 5 Samples for the taste test were prepared by dissolving, both the control and variant samples, directly in water at the desired test concentrations.
Expert tasters (n>5) tasted the control and test samples in a blinded experiment and assessed sweetness intensity (at the same concentration) via paired comparison. Each taster evaluated a pair of sweetened solutions at a time—one sample is sweetened with Control compound (i.e. control) while the other sample is sweetened with the test compound (i.e. variant). After tasting each sample in the pair, tasters were instructed to record the sample that is “sweeter” in taste. All samples were tasted at ambient temperatures.

[4] = Solubility: concentrated stock by conversion to sodium salt form; format: physicochemical; settings: for concentrated stock compared to the free base form: sodium salt form vs free base form; for concentrated solution prepared: sodium salt form, with 5.5% by weight sodium hydroxide in de-ionized water, vortex and sonication 30-120 s
From the text: Compounds 5 and 8 have been prepared at an increased concentration for commercial applications by converting them into their respective sodium salt forms. The process of converting to a salt form was obtained by dissolving the Compounds in water and adding a set quantity of sodium hydroxide or potassium hydroxide solution. A concentrated solution of 30% by weight of Compound 5 and 8 has been prepared by this method. This has been achieved by combining 30%, by weight, of Compound 5 or Compound 8 with 5.5%, by weight, of sodium hydroxide in de-ionized water. The mixture is subjected to intermittent vortex and sonication for a duration of 30-120 s. This process achieves a 300 times concentrated stock compared to the free base form of Compound 5 and 8, thereby enabling delivery of an increased concentration of the compounds in a model beverage/matrix. The sodium/potassium salt can increase solubility by changing neutral zwitterion to more hydrophilic negative charged anion.

[5] = test system: perception of sweet taste in humans; experiment: Descriptive Analysis (DA) sensory evaluation by trained panel, aqueous matrix; format: in vivo, human; settings: for Bitter @ 18 sec / Bitter @ 1 min / Bitter @ 1 min 30 s / Bitter @2 min / Bitter @3 min / Sweet @ 18 sec / Sweet @ 1 min / Sweet @ 1 min 30 s / Sweet @ 2 min: intensity on 15 cm scale; for Bitter @ 18 sec / Bitter @ 1 min / Bitter @ 1 min 30 s / Bitter @2 min / Bitter @3 min / Sweet @ 18 sec / Sweet @ 1 min / Sweet @ 1 min 30 s / Sweet @ 2 min / Sweet AT: in water, 500 ppm Rebaudioside M (control), 1500 ppm Compound 5 (variant), n≥12; for Sweet AT: sweet appearance time
Method: The effect of the test compound on the perception of sweet taste in an aqueous matrix was evaluated using a descriptive analysis methodology with a group of trained panelists, as follows.
Preparation of Samples for Sensory Taste Tests: • Control Sample: 500 ppm Rebaudioside M • Variant Sample: 1500 ppm Compound 5 Samples for the descriptive analysis taste test were prepared by dissolving, both the control and variant samples, directly in water at the desired test concentrations.
The taste test panelists used in Example I were selected using a sensory acuity screening program and then trained in descriptive analysis taste testing. Candidate panelists were recruited, with prescreening and personal interviews, and were assessed for their ability to detect, recognize and differentiate basic taste attributes or mixtures thereof as part of a standardized acuity test. These candidate panelists were also assessed for their innate ability to identify flavors, and to rank on intensity scales. Other senses such as smell and vision were also included as part of the assessment. Candidates also were screened for their ability to use the language to describe and articulate ideas.
The method was performed as a double blinded, randomized test, where trained Descriptive Analysis taste panelists (n≥12) profiled the maximum intensity perceived at 18 seconds, of the control sample and the variant sample for the following 3 attributes; sweet, bitter and sweet appearance time. In addition to the maximum intensity, the panelists continued to assess sweet and bitter intensity (at 1 min, 1.5 min, 2 min, and 3 min), to generate a discontinuous time scale Intensity profile (TSI) of sweet and bitter percepts to gain an understanding of the taste profile of the control and variant samples. Each panelist scored sweetness intensity on a 15 cm scale, with the control and variant sample being determined to be iso-sweet by ANOVA at 18 seconds.

[6] = test system: sweetness intensity (expert tasters); experiment: Reference scaling of sweetness intensity against sucrose references by expert tasters; format: in vivo, human; settings: for Sweetness Intensity (avg): @ 1000 ppm, ranked against sucrose references (5%, 7.5%, 10%), n>5
Method: as §1
In another test, expert tasters (n>5) also tasted Compound 5 and Control Samples to a set of sucrose references (5%, 7.5%, 10%) and ranked the Test and Control samples for sweetness intensity compared to sucrose references. At the same concentration, Compound 5 achieves higher (close to 2 fold) potency compared to Control compound.

concentrated stock compared to the free base form [4] [times]	concentrated solution prepared [4] [% by weight]	SMILES	Bitter @ 18 sec [5]	Bitter @ 1 min [5]	Bitter @ 1 min 30 s [5]	Bitter @2 min [5]	Bitter @3 min [5]	Sweet @ 18 sec [5]	Sweet @ 1 min [5]	Sweet @ 1 min 30 s [5]	Sweet @ 2 min [5]	Sweet AT [5]	Sweetness Intensity (avg) [6] [% Sucrose equivalent]	also measured
–	–	N[C@H](Cc1c[nH]c2cc(Cl)ccc12)C(=O)O [6-chloro-D-tryptophan]	–	–	–	–	–	–	–	–	–	–	–	sweeter than sucrose [1]: 1000 times
–	–	Cc1cccc2[nH]cc(CC(N)C(=O)O)c12 (centres unmarked) [Compound 1, 2-amino-3-(4-methyl-1H-indol-3-yl)propanoic acid]	–	–	–	–	–	–	–	–	–	–	–	Number picking Variant ([2]; Compound 1 @ 1000 ppm vs 10% Sucrose, in water, Total Number 38): 25
300	30	Cc1ccc2[nH]cc(C[C@@H](N)C(=O)O)c2c1 [Compound 5, (R)-2-amino-3-(5-methyl-1H-indol-3-yl)propanoic acid]	2.2	1.2	0.5	0.1	0.1	10.8	6.5	4.6	3	4.8	9.25	% picking Test as “sweeter” ([3]; Compound 5 @ 250 ppm vs Control (D-Tryptophan) @ 250 ppm): 100%; % picking Test as “sweeter” ([3]; Compound 5 @ 500 ppm vs Control (D-Tryptophan) @ 500 ppm): 100%; % picking Test as “sweeter” ([3]; Compound 5 @ 1000 ppm vs Control (D-Tryptophan) @ 1000 ppm): 100%; Number picking Variant ([2]; Compound 5 @ 2000 ppm (sodium salt dissolved in water) vs 12% Sucrose, Total Number 38): 26; lingering effects, sweet and bitter, as compared to the Rebaudioside M sample ([5]; by ANOVA, at multiple time points, 1500 ppm Compound 5 vs 500 ppm Rebaudioside M): significantly less; potency compared to Control compound ([6]; at the same concentration, Control = D-Tryptophan): ~2 fold
300	30	Cc1[nH]c2ccccc2c1C[C@@H](N)C(=O)O [Compound 8, (R)-2-amino-3-(2-methyl-1H-indol-3-yl)propanoic acid]	–	–	–	–	–	–	–	–	–	–	–	Number picking Variant ([2]; Compound 8 @ 3000 ppm (sodium salt dissolved in water) vs 8% Sucrose, Total Number 20): 11
–	–	N[C@H](Cc1c[nH]c2ccccc12)C(=O)O [Control, D-Tryptophan, reference compound]	–	–	–	–	–	–	–	–	–	–	5.83	–
–	–	C=C1C[C@@]23CC[C@H]4[C@@](C)(CCC[C@@]4(C)C(=O)O[C@@H]4O[C@H](CO)[C@@H](O)[C@H](O[C@@H]5O[C@H](CO)[C@@H](O)[C@H](O)[C@H]5O)[C@H]4O[C@@H]4O[C@H](CO)[C@@H](O)[C@H](O)[C@H]4O)[C@@H]2CC[C@]1(O[C@@H]1O[C@H](CO)[C@@H](O)[C@H](O[C@@H]2O[C@H](CO)[C@@H](O)[C@H](O)[C@H]2O)[C@H]1O[C@@H]1O[C@H](CO)[C@@H](O)[C@H](O)[C@H]1O)C3 [Rebaudioside M, reference compound]	3.3	2.2	1.4	0.7	0.3	10.7	7.2	5.3	3.6	5.9	–	–

— patent US20200297015A1, “TRYPTOPHAN DERIVATIVES AS SWEETENERS” (CHROMOCELL CORPORATION, priority 2017, published 2020)
